Experimental data published in patent publication US20040033273A1, “Withasol and methods of use” (AyurCore, Inc., priority 2001, published 2004).
Like-named read-outs stand apart in the source and are kept apart here.

Experiments:
[1] = system: BALB/c mouse implanted with ascitic sarcoma (S-180), CP treated; details: for Hb / Platelet Count (×10^3/mcl) / RBC Count (×10^6/mcl) / WBC Difference Count (%) Lymphocytes / WBC Difference Count (%) Polymorph / WBC Total Count (×10^3/mcl) / CF Titre (Log2) / HA Titre (Log2) / Difference in Weight (g) from Day 1 to 16: mean +/- SD
[2] = system: BALB/c mouse implanted with ascitic sarcoma, CP treated; details: for Hb / Platelet Count (×10^3mcl) / RBC Count (×10^6/mcl) / WBC Difference Count (%) Lymphocytes / WBC Difference Count (%) Polymorph / WBC Total Count (×10^3/mcl) / CF Titre (Log2) / HA Titre (Log2) / Difference in Weight (g) from Day 1 to 16: mean +/- SD
Description: This example describes dosing studies of WITHASOL in cyclophosphamide (CP) treated antigenically challenged BALB/c mouse animals implanted with ascitic sarcoma.
Following the established protocol, tumor was implanted on day 0. Test drugs as suspensions in 2.0% sterile CMC (vehicle) were prepared by Bio-Ved Laboratories. Antigenically sensitized (day 1) and challenged (day 10) mice, received test substances from day 1 to day 15 per oral route. Animals received appropriate vehicle (2.0% CMC) or CP (150 mg/kg) i.p. on day 11 and blood was collected on day 16. Body weights and gross observations were monitored during treatment.
Four doses, 400 mg/kg, 200 mg/kg, 100 mg/kg and 50 mg/kg of WITHASOL coded as R-1, R-2, R-3 and R-4, respectively, were used for this study. Decoding was done after the study was completed.
Data analysis was carried out using ANOVA single factor @<0.05 for comparison of the groups.

[3] = system: BALB/c mouse with ascitic sarcoma (S-180)
From the text: A study was then undertaken to determine the kinetics of cyclophosphamide treatment with respect to myelosuppression and immunosuppression. This step four aspect of the protocol establishes a time response curve for cyclophosphamide and determines optimal time for collection of blood samples and evaluation of hematological and serological parameters under the aforementioned conditions.
Mice were antigenically challenged with 0.5 cc of RBC suspension (1.0×10^8 cells/cc), intraperitoneally on day 1 as previously described. Mice from all groups were sensitized with RBC and a challenge dose was given on day 10.
Antibody titres were estimated using 96 well, U-bottom microtiter plates, double diluting serum samples and using 10% Human RBC suspension and complement (guinea pig serum).

[4] = system: BALB/c mouse with ascitic sarcoma (S-180); details: for survival rate: CP 150 mg/kg ip on day 11, compared with the other dose regimens
[5] = Tumor +, CP +: CP 150 mg/kg ip day 11, coded drug 100 mg/kg (vehicle for CP alone) po day 1-15, blood day 16
[6] = Tumor +, CP +: CP 150 mg/kg ip day 11, coded drug 100 mg/kg (vehicle for CP alone) po day 1-15, serum day 16
[7] = Tumor −, CP +, vehicle: CP 150 mg/kg ip day 11, blood day 16
[8] = Tumor −, CP +, vehicle: CP 150 mg/kg ip day 11, serum day 16
[9] = Tumor −, CP +, vehicle: CP 150 mg/kg ip day 11
[10] = groups I and II: CP 150 mg/kg ip day 11 in tumor free animals, day 16
[11] = groups III and IV: CP 150 mg/kg ip day 11 in tumor-bearing animals
[12] = groups III and IV: CP 150 mg/kg ip day 11 in tumor-bearing animals, day 16
[13] = Tumor +, CP +: CP 150 mg/kg ip day 11, WITHASOL po day 1-15 at 400 (R-1), 200 (R-2), 100 (R-3), 50 (R-4) mg/kg or vehicle (CP alone), blood day 16
[14] = Tumor +, CP +: CP 150 mg/kg ip day 11, WITHASOL po day 1-15 at 400 (R-1), 200 (R-2), 100 (R-3), 50 (R-4) mg/kg or vehicle (CP alone), day 16
[15] = Tumor −, CP +, vehicle: CP 150 mg/kg ip day 11, day 16
[16] = groups I and II: CP 150 mg/kg ip day 11 in tumor-free animals, day 16
[17] = CP 150 mg/Kg ip day 11 vs vehicle, days 13, 15, 17, 19 and 21
[18] = groups I and II: CP 3.0 mg/kg po days 4 to 19 vs vehicle, blood day 20
[19] = groups III and IV: CP 100 mg/kg ip days 7, 9, 11 vs vehicle, blood day 20
[20] = groups V and VI: CP 150 mg/kg ip day 11 vs vehicle, blood day 20

Q: What does the source list for `O=P1(N(CCCl)CCCl)NCCCO1` (stereo not shown) [CP, cyclophosphamide]?
A: Hb [1, 5]: 11.07 ± 3.812 g/dL; Platelet Count (×10^3/mcl) [1, 5]: 614.17 +/− 287.466 ×10^3/mcl; RBC Count (×10^6/mcl) [1, 5]: 3.54 +/− 1.332 ×10^6/mcl; WBC Difference Count (%) Lymphocytes [1, 5]: 58.18 +/− 8.634%; WBC Difference Count (%) Polymorph [1, 5]: 41.42 +/− 8.634%; WBC Total Count (×10^3/mcl) [1, 5]: 4.53 +/− 0.797 ×10^3/mcl; CF Titre (Log2) [1, 6]: 1.83 +/− 0.408 Log2; HA Titre (Log2) [1, 6]: 2.17 +/− 0.837 Log2; Difference in Weight (g) from Day 1 to 16 ([1]; Tumor +, CP +: S-180 bearing antigen-challenged mice, CP 150 mg/kg ip day 11, coded drug 100 mg/kg (vehicle for CP alone) po day 1-15): -0.83 ± 2.563 g; Hb [1, 7]: 13.8 ± 1.103 g/dL; Platelet Count (×10^3/mcl) [1, 7]: 966.33 +/− 324.879 ×10^3/mcl; RBC Count (×10^6/mcl) [1, 7]: 4.37 +/− 0.718 ×10^6/mcl; WBC Difference Count (%) Lymphocytes [1, 7]: 63.73 +/− 2.7897%; WBC Difference Count (%) Polymorph [1, 7]: 36.2 +/− 2.7897%; WBC Total Count (×10^3/mcl) [1, 7]: 3.8 +/− 1.226 ×10^3/mcl; CF Titre (Log2) [1, 8]: 1.00 Log2; HA Titre (Log2) [1, 8]: 1.5 +/− 5.48 Log2; Difference in Weight (g) from Day 1 to 16 [1, 9]: -0.5 ± 0.837 g; change in body weights ([1]; groups I and II: CP 150 mg/kg ip day 11 in tumor free animals): decrease; change in HA antibody titers [1, 10]: decreased; change in HL antibody titers [1, 10]: decreased; change in hemoglobin content [1, 10]: No significant change; change in lymphocyte percent [1, 10]: decreased; change in platelet counts [1, 10]: No significant change; change in polymorph percent [1, 10]: Increased; change in red cell counts [1, 10]: lowered; change in white cell total counts [1, 10]: lowered; change in body weight [1, 11]: decreased; change in HA antibody titers [1, 12]: decreased; change in HL antibody titers [1, 12]: decreased; change in hemoglobin content [1, 12]: No significant change; change in lymphocyte percentage [1, 12]: increase; change in platelet counts [1, 12]: Decreased; change in polymorph percentage [1, 12]: Decreased; change in red cell counts [1, 12]: No significant change; change in white counts [1, 12]: Decreased; Survival on Day 16 (Day of Bleeding): No. of Animals Survived ([2]; Tumor +, CP + groups: CP 150 mg/kg ip day 11, WITHASOL po day 1-15 at 400 (R-1), 200 (R-2), 100 (R-3), 50 (R-4) mg/kg or vehicle (CP alone)): 8; Hb [2, 13]: 12.8 ± 1.03 g/dL; Platelet Count (×10^3mcl) [2, 13]: 906.0 +/− 312.76 ×10^3mcl; RBC Count (×10^6/mcl) [2, 13]: 3.79 +/− 0.46 ×10^6/mcl; WBC Difference Count (%) Lymphocytes [2, 13]: 4.19 +/− 8.70%; WBC Difference Count (%) Polymorph [2, 13]: 58.1 +/− 8.70%; WBC Total Count (×10^3/mcl) [2, 13]: 6.2 +/− 2.17 ×10^3/mcl; CF Titre (Log2) [2, 14]: 3.5 +/− 0.53 Log2; HA Titre (Log2) [2, 14]: 3.3 +/− 0.89 Log2; Difference in Weight (g) from Day 1 to 16 ([2]; Tumor +, CP +: CP 150 mg/kg ip day 11, WITHASOL po day 1-15 at 400 (R-1), 200 (R-2), 100 (R-3), 50 (R-4) mg/kg or vehicle (CP alone)): 4.9 ± 2.36 g; Survival on Day 16 (Day of Bleeding): No. of Animals Survived ([2]; Tumor −, CP +, vehicle (group II)): 10; Hb [2, 7]: 12.9 ± 1.40 g/dL; Platelet Count (×10^3mcl) [2, 7]: 1170.2 +/− 152.33 ×10^3mcl; RBC Count (×10^6/mcl) [2, 7]: 4.04 +/− 0.54 ×10^6/mcl; WBC Difference Count (%) Lymphocytes [2, 7]: 76.7 +/− 4.35%; WBC Difference Count (%) Polymorph [2, 7]: 23.3 +/− 4.35%; WBC Total Count (×10^3/mcl) [2, 7]: 3.6 +/− 0.67 ×10^3/mcl; CF Titre (Log2) [2, 15]: 4.0 +/− 0.82 Log2; HA Titre (Log2) [2, 15]: 4.4 +/− 0.52 Log2; Difference in Weight (g) from Day 1 to 16 [2, 9]: 0.4 ± 0.52 g; change in body weights ([2]; groups I and II: CP 150 mg/kg ip day 11 in tumor-free animals): decreased; change in HA antibody titres [2, 16]: decreased; change in HL antibody titres [2, 16]: decreased; change in hemoglobin content [2, 16]: decreased; change in platelet counts [2, 16]: increased; change in red cell counts [2, 16]: decreased; change in white cell differential counts [2, 16]: no significant change; change in white cell total counts [2, 16]: decreased; change in body weights [2, 11]: decreased; change in HA antibody titres [2, 12]: decreased; change in HL antibody titres [2, 12]: decreased; change in hemoglobin content [2, 12]: no significant change; change in lymphocyte percentage [2, 12]: increased; change in platelet counts [2, 12]: no significant change; change in polymorph percentage [2, 12]: decrease; change in red cell counts [2, 12]: no significant change; change in white cell total counts [2, 12]: decrease; time of maximum myelosuppressive and immunosuppressive effect ([3]; CP 150 mg/Kg ip day 11, day after tumor implantation): day 15, or in between day 15 and day 17; change in platelet counts ([3]; CP 150 mg/Kg ip day 11 vs vehicle): unaffected; change in hemagglutinating antibody (HA) titers [3, 17]: decrease; change in hemolytic antibody titers (complement fixing-CF) [3, 17]: decrease; change in white blood cell counts ([3]; CP 150 mg/Kg ip day 11 vs vehicle, on day 13 and on day 15): significantly decreased; change in hemoglobin content ([3]; CP 150 mg/Kg ip day 11 vs vehicle, on day 17): significant decrease; change in red blood cell counts ([3]; CP 150 mg/Kg ip day 11 vs vehicle, on day 19 (P<0.09)): increased; tumor relapse ([3]; after a few days of cyclophosphamide treatment (150 mg/Kg ip day 11), animals died from tumor regrowth): Tumor relapse was observed; tumor regression ([3]; single cyclophosphamide dose of 150 mg/Kg ip on day 11): regression of tumor; survival rate [4]: maximum survival rate; survival rate ([4]; listed as cyclophosphamide): greatest survival rate; change in weight of animals ([4]; all three CP doses (3.0 mg/kg po days 4-19; 100 mg/kg ip days 7, 9, 11; 150 mg/kg ip day 11) vs vehicle, t test): significant decrease; change in hemoglobin content [4, 18]: no significant change; change in lymphocytes [4, 18]: no significant change; change in monocyte counts [4, 18]: significantly increased; change in neutrophil counts [4, 18]: significantly lowered; change in platelet counts [4, 18]: no significant change; change in red cell counts [4, 18]: no significant change; change in total white cell counts [4, 18]: significantly lowered; change in hemoglobin content [4, 19]: no significant change; change in platelet counts [4, 19]: no significant change; change in red cell counts [4, 19]: no significant change; change in white cell differential counts [4, 19]: no significant change; change in white cell total counts [4, 19]: no significant change; change in hemoglobin content [4, 20]: no significant change; change in monocytes [4, 20]: no significant change; change in neutrophils [4, 20]: significant increase; change in platelet counts [4, 20]: no significant change; change in red cell counts [4, 20]: no significant change; change in white cell counts [4, 20]: significant increase
